Consider six molecules from US10738080B2, “Inhibitors of beta integrin-G protein alpha subunit binding interactions” (priority 2010, dated 2020).

One assay deals with mouse platelets. The assay can be described thus: Mouse platelet spreading on immobilized fibrinogen. It is filed as cell-based.
For another assay, the system named is c-Src. The protocol: Two different Gα13 siRNA target sequences were used: siRNA #1, 5′-[…] (SEQ ID NO: 56); siRNAi #2, 5′-[…] (SEQ ID NO: 57). Scrambled siRNA sequence is: 5′-[…]-3′ (SEQ ID NO: 58). These sequences are conserved in hamsters and mice. Lentivirus was prepared by co-transfection of pLL3.7-scrambled siRNA or pLL3.7-Gα13 siRNA (#1 and #2) with pLP1, pLP2 and pLP/VSVG plasmids (Invitrogen) into ˜90% confluent 293FT cells using Lipofectamine 2000. 48 hours after transfection, cell culture medium containing virus was filtered, titered and stored at −80° C. Bone manow cells from 6-8 week old healthy C57/BL mice were isolated aseptically from femurs and tibias. Stem cells were negatively selected by MACS Lineage cell depletion kit (Miltenyi Biotec) and cultured in RPMI 1640 complete medium with 10 ng/ml interleukin-3, 10 ng/ml interleukin-6, 10 ng/ml granulocyte-macrophage colony stimulating factor (GM-CSF), and 100 ng/ml stem cell factor (SCF). 50 multiplicity of infection (MOI) lenti-virus was used to infect mice bone marrow stem cells twice with 6 μg/ml polybrene. 48 hours after infection, 5×10^6 stem cells resuspended in PBS were transplanted by retrobulbar injection into lethally irradiated (10.5 Gy) C57/BL mice one day after irradiation (S11). The siRNA-resistant mutants of Gα13 were generated by PCR.

Assay [1] has as its system RhoA. The note with it: mouse platelets from siRNA-transfected stem cells.
Experimental: (FIG. 6B) Scrambled siRNA, Gα13 siRNA #1- and Gα13 siRNA #2-transfected platelets were allowed to adhere to immobilized fibrinogen for the indicated time, and analyzed for c-Src activation and RhoA activity.
(§1) Platelets in modified Tyrode's buffer or adherent on immobilized fibrinogen were lysed quickly in 0.8 ml lysis buffer (50 mM Tris, pH 7.4, 10 mM MgCl2, 500 mM NaCl, 1% Triton X-100, 0.1% SDS, 0.5% deoxycholate, 10 μg/ml each of aprotinin and leupeptin, 1 mM phenylmethylsulfonyl fluoride, and 200 μM sodium vanadate). Lysates were cleared by centrifugation at 18,000 g for 2 minutes at 4° C., and the supernatant was incubated for 1 hour with 30 μg purified GST-Rhotekin RhoA-binding domain fusion protein (GST-RBD) bound to glutathione-Sepharose beads (S10). Samples were washed three times using washing buffer (50 mM Tris, pH 7.4, 10 mM MgCl2, 150 mM NaCl, 1% Triton X-100) and then immunoblotted with an anti-RhoA monoclonal antibody. Cell lysates were also immunoblotted with anti-RhoA as loading control.
Assay [2] deals with human platelets. It is filed as cell-based. As for the experimental part:
The clots were photographed at various time points. […] Statistical significance was determined using t-test.
Studies using human platelets were approved by institutional review board of University of Illinois at Chicago.
Coverslides were pre-coated with 100 μg/ml fibrinogen and blocked with 5% BSA in PBS. 300 μl αIIbβ3-expressing CHO cells (expressing WT or mutant integrins; 1×10^5/ml) or platelets (1×10^7/ml) suspended in Tyrode's buffer were added to coverslides and incubated at 37° C. for various lengths of time. Cells were fixed with 4% paraformaldehyde (PFA) for 10 minutes and permeabilized with 0.1% Triton X-100 in PBS for 2 minutes. After blocking with 5% BSA for 10 minutes, coverslides were incubated with 0.2 μg/ml mAb 15, or Alexa Fluor-546 conjugated phalloidin. For mouse platelets re-express wild type β3 or the AAA mutant of β3, β3 was immuno-stained with the anti-β3 monoclonal antibody MAb 15 and Alexa Fluor-546 conjugated phalloidin. The slides were scanned with a Zeiss LSM5 10 META confocal microscope as previously described^11

The subject of assay [3] is human platelets. The protocol: Platelet aggregation assays were carried out as follows: Platelet aggregation and secretion was measured in a turbidometric platelet aggregometer (Chronolog) at 37° C. with stirring (1000 rpm). Washed platelets (3×10^8/ml) in modified Tyrode's buffer were stimulated with thrombin (Enzyme Research Laboratories). For talin knockdown platelet aggregation assay stimulated with manganese and ADP, manganese and ADP was mixed prior to experiment to achieve final concentration of 1 mM manganese and 5 μM ADP in reaction tube. Aggregation traces shown are representative of at least three independent experiments.
Platelet aggregation assays were performed with myristoylated peptide mP5, myristoylated peptide of SEQ: ID NO: 87, or their respective scarmbled control peptides, as essentially described herein. Briefly, washed human platelets were preincubated with 25, 50, 100, 250, or 500 μM peptide solubilized in DMSO.

For assay [4] the following is noted: C57BL/6 mice, FeCl3 carotid artery injury, compared to scrambled control ERAFEE.
Experimental: In this study, adult mice are anesthetized by intraperitoneal injection of pentobarbital (120 mg/kg). The left common carotid artery is surgically exposed and a miniature Doppler flow probe (Model 0.5VB; Transonic Systems, Ithaca, N.Y.) is placed on the surface of the artery. After adding 0.9% sodium chloride solution in the surgical wound to allow Doppler monitoring, baseline blood flow is recorded using a Transonic flowmeter. Thereafter, sodium chloride solution is removed and filter paper (round, 1.0 mm in diameter) saturated with 10% FeCl3 is applied to the surface of the carotid artery immediately proximal to the flow probe. After 3 minutes, the filter paper is removed, saline solution is again administered to the wound, and carotid blood flow is monitored. If occlusive thrombosis occurs to the injured carotid artery, blood flow is reduced to zero. ExE motif peptide micelles and controls are injected i.v. via the tail vein in C57BL/6 mice, then tested for occlusive thrombosis using this model.
The next assay deals with T1, Gα13 binding to β3 (Homo sapiens, UniProt P05106+Q14344).
T1 construct: Proteins from platelet lysates were immunoprecipitated with control IgG or antibody to Gα13; The integrin αIIbβ3 was co-immunoprecipitated by anti-Gα13 antibody, but not control IgG, from platelet lysates; endogenous in cells; host or cells: washed human platelets (lysates)
T1 sequence (Q14344 1-377): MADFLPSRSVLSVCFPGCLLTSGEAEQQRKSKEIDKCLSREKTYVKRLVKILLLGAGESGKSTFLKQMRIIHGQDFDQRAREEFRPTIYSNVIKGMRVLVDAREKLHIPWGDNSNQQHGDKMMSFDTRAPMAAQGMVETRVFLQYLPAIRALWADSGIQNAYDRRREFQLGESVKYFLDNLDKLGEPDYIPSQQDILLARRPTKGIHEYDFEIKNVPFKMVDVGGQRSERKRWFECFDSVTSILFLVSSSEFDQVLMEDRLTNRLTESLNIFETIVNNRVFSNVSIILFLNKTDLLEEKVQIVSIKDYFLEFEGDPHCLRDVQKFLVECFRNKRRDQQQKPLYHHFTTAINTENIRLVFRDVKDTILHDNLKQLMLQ
T1 sequence (P05106 27-788): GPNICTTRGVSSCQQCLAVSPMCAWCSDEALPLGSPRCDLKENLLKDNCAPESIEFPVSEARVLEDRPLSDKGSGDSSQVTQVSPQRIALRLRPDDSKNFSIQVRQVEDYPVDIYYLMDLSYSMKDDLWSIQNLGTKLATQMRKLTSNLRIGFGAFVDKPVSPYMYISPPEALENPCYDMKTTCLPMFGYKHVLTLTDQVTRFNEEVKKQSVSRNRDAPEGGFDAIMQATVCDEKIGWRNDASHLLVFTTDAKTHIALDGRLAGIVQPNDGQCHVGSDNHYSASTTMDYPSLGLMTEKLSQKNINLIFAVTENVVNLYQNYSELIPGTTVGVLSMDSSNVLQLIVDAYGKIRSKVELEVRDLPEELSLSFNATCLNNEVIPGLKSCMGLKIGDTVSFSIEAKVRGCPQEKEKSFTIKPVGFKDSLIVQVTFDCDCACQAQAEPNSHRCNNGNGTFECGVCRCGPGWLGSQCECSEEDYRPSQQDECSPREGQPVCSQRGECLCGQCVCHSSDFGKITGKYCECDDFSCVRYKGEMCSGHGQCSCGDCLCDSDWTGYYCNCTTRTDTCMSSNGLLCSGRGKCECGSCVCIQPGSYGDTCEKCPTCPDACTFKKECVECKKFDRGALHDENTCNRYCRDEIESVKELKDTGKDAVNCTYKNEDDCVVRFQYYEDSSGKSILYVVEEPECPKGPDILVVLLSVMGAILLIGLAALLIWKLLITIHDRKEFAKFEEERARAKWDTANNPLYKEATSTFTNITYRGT
The assay can be described thus: Co-immunoprecipitation of β3 with Gα13 from platelet lysates. The note with it: platelets stimulated with thrombin, 2 mM RGDS. As for the experimental part:
As previously described (S7), cell lysates were incubated with 2 μg/ml of D57 (antibody to integrin αIIbβ3), LJP3 (antibody against GPIb), or mouse IgG, and further incubated with protein G-conjugated Sepharose beads. Cell lysates were also incubated with rabbit anti-Gα13 IgG antibody (1.5 μg/ml) or an equal amount of rabbit IgG and further incubated with protein A-conjugated Sepharose beads. After 3-6 washes with lysis buffer, immunoprecipitates were analyzed by SDS-polyacrylamide gel electrophoresis and Western blots with antibodies against β3 (MAb15), GPIb (anti-IbαC (S8)) or Gα13. In some experiments, 1 μM GDP, 1 μM GTPγS or 30 μM AlF4^− were added to the reaction to assess the effect of Gα13 activation on integrin binding. In other experiments, 250 μM mSRI or scrambled control peptide was incubated with platelet lysates prior to immunoprecipitation. GST bead pull down analysis was previously described (S7). Purified Gα13 was incubated with glutathione beads-bound to GST, GST-β1CD or GST-β3 CD at 4° C. overnight. Bead-bound proteins were analyzed by immunoblotting. For GST-β3CD cDNA construction, integrin-β3 cytoplasmic domain (716-762) cDNA was generated by PCR and cloned into pGEX-4T2 vector using Bam HI and Xho I restriction sites. The forward primer is 5′-[…]-3′ (SEQ ID NO: 48); the reverse primer is 5′-[…]-3′ (SEQ ID NO: 49). For GST-I31CD cDNA construction, β1 cytoplasmic domain (752-798) cDNA was amplified by PCR and cloned into pGEX-4T1 vector using EcoRI and Xho I restriction sites. The primer sequences are: (1) forward: 5′-[…]-3′ (SEQ ID NO: 50); (2) reverse: […]-3′ (SEQ ID NO: 51). GST, GST-β1CD and GST-β3CD were purified from BL21 (DE3) E. coli using glutathione-conjugated beads.
Cell lysates were incubated with rabbit anti-Gα13 IgG (1.5 μg/ml), anti-integrin β3 rabbit serum (5 μl/ml) or an equal amount of rabbit IgG or pre-immune serum at 4° C. overnight, and subsequently with protein A-conjugated Sepharose beads for 1 hour. For the integrin β3 clustering experiment, human platelets (3×10^8) were stimulated with 0.025 U/ml α-thrombin for 2 minutes at room temperature (to avoid platelet aggregation) with or without 2 mM RGDS, then incubated with 5 μl anti-integrin β3 8053 rabbit serum at room temperature for 1 hour, and 5 μg goat anti-rabbit secondary antibody for another 1 hour. Platelets were then solubilized in modified RIPA Buffer. For the un-clustering control and pre-immune serum control, cells were solubilized in modified RIPA Buffer first, than incubated with 5 μl 8053 serum or pre-immune serum. After 3-6 washes with lysis buffer, immunoprecipitates were analyzed by SDS-polyacrylamide gel electrophoresis and Western blots using antibodies against β3, talin, or Gα13. In some experiments, 500 μM control or inhibitor peptides, mP5, mP7 and mP13 were incubated with platelet lysates prior to immunoprecipitation, or 2 mM RGDS was added into washed human platelets before stimulation by 0.025 U/ml α-thrombin. GST bead pull down analysis was previously described^8. Purified Gα13 or MBP-talin head were incubated with glutathione beads-bound to GST or GST-β3CD at 4° C. overnight. Bead-bound proteins were analyzed by immunoblotting.

Assay [5] deals with RhoA. The assay is described as follows: RhoA activity assay (GST-RBD pull down) in platelets. It is filed as cell-based, human. Conditions: platelets stimulated with thrombin, 2 mM RGDS.
Experimental: as §1

Consider 5′-GGAGATCGACAAATGCCTG [Gα13 siRNA #2], for which the platelet spreading entry with mouse platelets is “inhibited”. Further, the c-Src activation entry in the assay with c-Src is “inhibited”. Further, in the assay with RhoA [1], the “activation of RhoA” value is “accelerated”.

For the molecule 5′-GTCCACCTTCCTGAAGCAG [Gα13 siRNA #1], the platelet spreading result in the assay on mouse platelets is given as “inhibited”. For the same molecule, the c-Src activation entry with c-Src is “inhibited”. For the same molecule, in the assay with RhoA [1], the “activation of RhoA” value is “accelerated”.

In the case of `C[C@@H](N)[C@H]1CC[C@H](C(=O)Nc2ccncc2)CC1` [Y27632, reference compound], the “inhibitory effect of mP5 on platelet spreading (reversal)” value with human platelets [2] (platelets treated with mP5) was “reversed”. Also, the “inhibitory effect of mSRI on platelet spreading (reversal)” value in the assay on human platelets [2] (platelets treated with mSRI) is on record as “reversed”. In addition, in the assay with mouse platelets (Gα13-depleted mouse platelets), the “inhibitory effect of Gα13 depletion on platelet spreading (reversal)” value was “reversed”.

Consider `CC(=O)Oc1ccccc1C(=O)O` [aspirin, reference compound], for which, in the assay on mouse platelets (mouse platelets pre-incubated with 1 mM aspirin), the “platelet spreading on fibrinogen” value is “did not affect”.

On to FEEERA, for which the “inhibition of platelet aggregation, doses compared to the mP5 peptide” value with human platelets [3] (25-500 μM peptide in DMSO, 0.09 U/ml thrombin, washed human platelets) is given as “inhibit platelet aggregation at lower doses”. Besides, in the assay with human platelets [3] (preliminary dose-dependent study, DMSO solution vs micellar formulation), the “concentration required for the maximal effect on in vitro platelet aggregation” value came out at 250 µM. In addition, in assay [4], the time to occlusion result is “increased”.

Regarding RGDS [reference compound], the “Thrombin-stimulated binding of Gα13 to αIIbβ3” value with Gα13 binding to β3 is on record as “inhibited”. Further, in the assay with RhoA [5], the “RhoA inhibition simultaneous with thrombin-stimulated Gα13-αIIbβ3 binding” value was “inhibited”.
